Data on 19 compounds can be found in paper PMC7247680, “Novel Indole-Based Hydrazones as Potent Inhibitors of the α-class Carbonic Anhydrase from Pathogenic Bacterium Vibrio cholerae” (International Journal of Molecular Sciences, 2020).

The target of this experiment is T1, VcCA (α-class carbonic anhydrase from Vibrio cholerae) (Vibrio cholerae, UniProt Q9KMP6).
T1 construct: gene VC_A0274
T1 sequence (Q9KMP6 21-239 limits assumed): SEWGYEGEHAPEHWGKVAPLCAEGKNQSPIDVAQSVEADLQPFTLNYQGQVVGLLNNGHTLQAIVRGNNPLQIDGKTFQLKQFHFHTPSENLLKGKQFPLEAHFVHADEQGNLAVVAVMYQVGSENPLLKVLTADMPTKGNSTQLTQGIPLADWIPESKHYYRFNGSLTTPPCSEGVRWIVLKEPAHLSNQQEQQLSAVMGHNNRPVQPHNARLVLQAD
The experiment can be described thus: stopped-flow CO2 hydration assay, Cheng-Prusoff. It counts as biochemical. Conditions: read-out: KI * (nM) / VcCA; CO2 substrate, pH 7.4, 10 mM Hepes, 0.1 M NaClO4, 25 °C, 15 min pre-incubation.
With `NS(=O)(=O)c1ccc2[nH]c(C(=O)NN=Cc3ccc(Br)s3)c(-c3ccccc3)c2c1` [compound 5, 5 (R = H, R1 = 5-Br-thiophen-2-yl)], the Ki is 94.8 nM.
For the compound `NS(=O)(=O)c1ccc2[nH]c(C(=O)NN=Cc3c[nH]c4ccccc34)c(-c3ccccc3)c2c1` [compound 9, 9 (R = H, R1 = indol-3-yl)], the Ki was 60.5 nM.
Consider `CCCC1CCC(=NNC(=O)c2[nH]c3ccc(S(N)(=O)=O)cc3c2-c2ccccc2)CC1` (stereo not shown) [compound 20, 20 (R/R1 = 4-propylcyclohexyl)], for which the Ki came to 67.5 nM.
With `CC=NNC(=O)c1[nH]c2ccc(S(N)(=O)=O)cc2c1-c1ccccc1` [compound 11, 11 (R = H, R1 = CH3)] the figure was 27.1 nM; with `NS(=O)(=O)c1ccc2[nH]c(C(=O)NN=Cc3cccnc3)c(-c3ccccc3)c2c1` [compound 7, 7 (R = H, R1 = pyridin-3-yl)], 74.2 nM; with `CC1CCC(=NNC(=O)c2[nH]c3ccc(S(N)(=O)=O)cc3c2-c2ccccc2)CC1` (stereo not shown) [compound 18, 18 (R/R1 = 4-methylcyclohexyl)], 71.4 nM.
With `NS(=O)(=O)c1ccc2[nH]c(C(=O)NN=Cc3ccncc3)c(-c3ccccc3)c2c1` [compound 8, 8 (R = H, R1 = pyridin-4-yl)] the figure was 72.1 nM.
As for `CC(C)=NNC(=O)c1[nH]c2ccc(S(N)(=O)=O)cc2c1-c1ccccc1` [compound 12, 12 (R = CH3, R1 = CH3)], the Ki was found to be 22.8 nM.
With `NS(=O)(=O)c1ccc2[nH]c(C(=O)NN=C3CCCCC3)c(-c3ccccc3)c2c1` [compound 17, 17 (R/R1 = cyclohexyl)] the figure was 81.4 nM; with `CN1CCC(=NNC(=O)c2[nH]c3ccc(S(N)(=O)=O)cc3c2-c2ccccc2)CC1` [compound 23, 23 (R/R1 = 1-methylpiperidin-4-yl)], 25.2 nM.
In the case of `C=NNC(=O)c1[nH]c2ccc(S(N)(=O)=O)cc2c1-c1ccccc1` [compound 10, 10 (R = H, R1 = H)], the Ki worked out at 46.6 nM.
For `NS(=O)(=O)c1ccc2[nH]c(C(=O)NN=Cc3cccs3)c(-c3ccccc3)c2c1` [compound 4, 4 (R = H, R1 = thiophen-2-yl)], the Ki was determined as 80.4 nM.
Then `NS(=O)(=O)c1ccc2[nH]c(C(=O)NN=C3CCCC3)c(-c3ccccc3)c2c1` [compound 16, 16 (R/R1 = cyclopentyl)], with 68 nM; and `CCC1CCC(=NNC(=O)c2[nH]c3ccc(S(N)(=O)=O)cc3c2-c2ccccc2)CC1` (stereo not shown) [compound 19, 19 (R/R1 = 4-ethylcyclohexyl)], with 62.1 nM.
Then `CC(C)(C)C1CCC(=NNC(=O)c2[nH]c3ccc(S(N)(=O)=O)cc3c2-c2ccccc2)CC1` (stereo not shown) [compound 22, 22 (R/R1 = 4-tert-butylcyclohexyl)], with 34.1 nM; and `CC(CC(C)C)=NNC(=O)c1[nH]c2ccc(S(N)(=O)=O)cc2c1-c1ccccc1` [compound 15, 15 (R = CH3, R1 = isobutyl)], with 79.6 nM.
With `NS(=O)(=O)c1ccc2[nH]c(C(=O)NN=C3CCN(Cc4ccccc4)CC3)c(-c3ccccc3)c2c1` [compound 24, 24 (R/R1 = 1-benzylpiperidin-4-yl)], the Ki came to 92.4 nM.
Then `NS(=O)(=O)c1ccc2[nH]c(C(=O)NN=C3CCC(c4ccccc4)CC3)c(-c3ccccc3)c2c1` (stereo not shown) [compound 21, 21 (R/R1 = 4-phenylcyclohexyl)], with 52.1 nM; and `Cn1cccc1C=NNC(=O)c1[nH]c2ccc(S(N)(=O)=O)cc2c1-c1ccccc1` [compound 6, 6 (R = H, R1 = 1-CH3-pyrrol-2-yl)], with 74.1 nM.
